From patent US20050192279A1, “Pyridazinones as antagonists of alpha4 integrins” (priority 2004, published 2005)

Columns and labels:
human α4β7 integrin = target: T1, human α4β7 integrin (Homo sapiens, UniProt P13612+P26010); assay: α4β7-K562 Cell Adhesion Assay (α4β7 Mediated Adhesion/MAdCAM-1); format: cell-based; conditions: α4β7-K562 cell adhesion to hMAdCAM-1; read-out: α4β7 IC50
T1 construct: expressed in transfected cells; host or cells: K562 cells, stably transfected
T1 sequence (P13612 34-1032): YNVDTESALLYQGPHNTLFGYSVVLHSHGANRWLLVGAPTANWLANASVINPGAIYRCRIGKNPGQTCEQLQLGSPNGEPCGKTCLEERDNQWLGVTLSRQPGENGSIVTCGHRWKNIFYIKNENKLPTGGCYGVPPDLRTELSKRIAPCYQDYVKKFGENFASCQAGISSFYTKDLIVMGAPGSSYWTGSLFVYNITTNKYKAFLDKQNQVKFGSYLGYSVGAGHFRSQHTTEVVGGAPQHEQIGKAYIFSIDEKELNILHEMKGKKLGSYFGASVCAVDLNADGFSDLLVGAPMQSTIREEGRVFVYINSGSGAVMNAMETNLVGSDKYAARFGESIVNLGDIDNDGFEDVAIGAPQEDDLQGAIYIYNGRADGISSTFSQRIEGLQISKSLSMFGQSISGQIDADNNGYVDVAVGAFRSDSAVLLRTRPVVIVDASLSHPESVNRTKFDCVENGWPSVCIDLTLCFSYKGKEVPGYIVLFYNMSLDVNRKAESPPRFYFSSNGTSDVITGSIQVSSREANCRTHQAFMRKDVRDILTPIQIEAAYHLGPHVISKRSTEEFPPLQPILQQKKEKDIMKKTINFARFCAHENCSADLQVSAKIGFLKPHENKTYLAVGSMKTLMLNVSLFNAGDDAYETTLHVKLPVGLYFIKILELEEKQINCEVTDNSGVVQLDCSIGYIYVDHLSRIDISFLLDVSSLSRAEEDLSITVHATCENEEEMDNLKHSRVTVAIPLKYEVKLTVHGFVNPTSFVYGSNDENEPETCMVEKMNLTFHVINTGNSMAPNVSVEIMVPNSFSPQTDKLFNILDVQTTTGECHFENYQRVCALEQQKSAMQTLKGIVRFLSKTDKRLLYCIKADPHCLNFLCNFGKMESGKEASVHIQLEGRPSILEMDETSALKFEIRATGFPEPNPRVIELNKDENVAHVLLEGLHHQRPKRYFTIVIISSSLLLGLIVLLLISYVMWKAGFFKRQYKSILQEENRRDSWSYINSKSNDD
T1 sequence (P26010 20-798): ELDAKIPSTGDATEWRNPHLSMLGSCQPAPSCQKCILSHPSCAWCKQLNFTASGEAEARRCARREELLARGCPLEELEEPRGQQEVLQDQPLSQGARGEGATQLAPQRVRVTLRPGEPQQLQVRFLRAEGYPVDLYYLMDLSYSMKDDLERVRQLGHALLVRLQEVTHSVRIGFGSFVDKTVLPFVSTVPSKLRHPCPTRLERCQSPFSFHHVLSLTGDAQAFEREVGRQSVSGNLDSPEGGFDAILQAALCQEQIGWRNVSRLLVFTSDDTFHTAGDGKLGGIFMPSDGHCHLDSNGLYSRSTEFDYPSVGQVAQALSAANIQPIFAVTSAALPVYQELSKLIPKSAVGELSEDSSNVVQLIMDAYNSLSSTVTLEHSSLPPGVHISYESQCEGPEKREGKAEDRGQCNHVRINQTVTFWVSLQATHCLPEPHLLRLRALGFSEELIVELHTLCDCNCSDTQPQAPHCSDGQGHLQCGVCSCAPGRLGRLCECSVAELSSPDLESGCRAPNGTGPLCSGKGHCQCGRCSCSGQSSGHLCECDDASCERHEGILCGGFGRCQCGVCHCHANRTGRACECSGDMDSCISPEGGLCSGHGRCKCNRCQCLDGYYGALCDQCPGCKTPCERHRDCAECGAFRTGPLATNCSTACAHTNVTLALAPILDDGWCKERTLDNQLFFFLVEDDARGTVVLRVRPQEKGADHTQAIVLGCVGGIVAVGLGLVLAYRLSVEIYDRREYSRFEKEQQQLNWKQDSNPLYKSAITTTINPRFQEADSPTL
Procedure, shortened: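 Anti-FLAG plates coated 1 h at 4° C with FLAG-hMAdCAM-1 in PBS pH 7.4, 1% BSA, 1 mM Mn2+. Stably transfected K562 cells expressing human α4β7, labelled with CFDA-SE, adhered with compound 1 h at room temperature. After four washes, bound cells lysed in 0.1 M NaOH for fluorescence read-out.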

α4β1 = target: T2, α4β1 (Homo sapiens, UniProt P05556+P13612); assay: Ramos Cell Adhesion Assay (α4β1 Mediated Adhesion/VCAM-1); format: cell-based; conditions: Ramos cell adhesion to hVCAM-1; read-out: α4β1 IC50
T2 construct: Ramos Cell Adhesion Assay (α4β1 Mediated Adhesion/VCAM-1); endogenous in cells; host or cells: Ramos cells
T2 sequence (P05556 21-798, one chain of several): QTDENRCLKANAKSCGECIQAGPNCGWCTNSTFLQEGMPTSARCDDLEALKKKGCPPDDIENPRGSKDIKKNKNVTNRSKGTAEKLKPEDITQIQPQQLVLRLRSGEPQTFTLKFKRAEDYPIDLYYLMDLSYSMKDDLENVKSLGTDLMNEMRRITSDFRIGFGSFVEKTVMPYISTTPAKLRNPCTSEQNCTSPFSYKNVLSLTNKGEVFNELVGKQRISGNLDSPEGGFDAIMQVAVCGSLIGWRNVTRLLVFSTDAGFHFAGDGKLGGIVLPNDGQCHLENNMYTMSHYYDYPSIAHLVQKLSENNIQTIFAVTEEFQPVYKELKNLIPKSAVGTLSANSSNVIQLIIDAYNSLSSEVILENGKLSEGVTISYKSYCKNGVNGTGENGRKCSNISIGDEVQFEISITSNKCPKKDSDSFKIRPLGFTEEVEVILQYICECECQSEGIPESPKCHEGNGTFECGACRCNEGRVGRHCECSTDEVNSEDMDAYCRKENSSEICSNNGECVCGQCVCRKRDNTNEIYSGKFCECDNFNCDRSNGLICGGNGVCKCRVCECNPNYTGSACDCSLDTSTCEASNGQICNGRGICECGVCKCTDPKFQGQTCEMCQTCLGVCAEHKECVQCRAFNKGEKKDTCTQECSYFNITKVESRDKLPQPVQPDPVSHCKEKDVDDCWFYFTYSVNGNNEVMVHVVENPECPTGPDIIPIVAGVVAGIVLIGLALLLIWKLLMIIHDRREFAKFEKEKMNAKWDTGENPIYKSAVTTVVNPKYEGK
Procedure, shortened: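 Plates coated overnight at 4° C with recombinant hVCAM-1 at 4.0 μg/mL, pH 9.0, then blocked in PBS/1% BSA. Calcein AM-labeled Ramos cells added with compounds and left to adhere 1 h at room temperature; after washing, cells lysed in 1 M Tris pH 8.0/1% SDS.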

Row | IC50 (human α4β7 integrin) | IC50 (α4β1) | SMILES
1 | 1 nM | 168 nM | CCOc1cnn(C)c(=O)c1-c1ccc(C[C@H](NC(=O)c2c(Cl)cccc2Cl)C(=O)O)cc1 [Cpd 4]
2 | 937 nM | > 5000 nM | COc1cnn(C)c(=O)c1-c1ccc(C[C@H](NC(=O)[C@@H](NC2CCCCC2)C(C)C)C(=O)O)cc1 [Cpd 189]
3 | 3 nM | 44 nM | COc1cnn(C)c(=O)c1-c1ccc(C[C@H](NC(=O)[C@@H](C(C)C)N(C)C(=O)Cc2ccsc2)C(=O)O)cc1 [Cpd 19]
4 | 817 nM | > 5000 nM | COc1cnn(C)c(=O)c1-c1ccc(C[C@H](NC(=O)C(C)(C)O)C(=O)O)cc1 [Cpd 185]
5 | 3 nM | 65 nM | Cn1ncc(OCCN2CCOCC2)c(-c2ccc(C[C@H](NC(=O)c3c(Cl)cccc3Cl)C(=O)O)cc2)c1=O [Cpd 21]
6 | 3140 nM | > 5000 nM | COc1cnn(C)c(=O)c1-c1ccc(C[C@H](NC(=O)O[C@H](C)c2ccccc2)C(=O)O)cc1 [Cpd 209]
7 | 56 nM | 1790 nM | COc1cnn(C)c(=O)c1-c1ccc(C[C@H](NC(=O)CN(C)C(=O)OCc2ccccc2)C(=O)O)cc1 [Cpd 96]
8 | 239 nM | > 5000 nM | COc1cnn(C)c(=O)c1-c1ccc(C[C@H](NC(=O)C(C)(C)NC(C)C)C(=O)O)cc1 [Cpd 218]
9 | 152 nM | > 5000 nM | COc1cnn(C)c(=O)c1-c1ccc(C[C@H](NC(=O)C2(c3ccc(F)cc3)CCCC2)C(=O)O)cc1 [Cpd 132]
10 | 219 nM | > 5000 nM | COc1cnn(C)c(=O)c1-c1ccc(C[C@H](NC(=O)C2(NC(C)=O)CC2)C(=O)O)cc1 [Cpd 227]
11 | 339 nM | > 5000 nM | CNc1cnn(C)c(=O)c1-c1ccc(C[C@H](NC(=O)c2c(Cl)cccc2Cl)C(=O)O)cc1 [Cpd 156]
12 | 244 nM | > 1000 nM | COc1cnn(C)c(=O)c1-c1ccc(C[C@H](NC(=O)C(=O)C(C)C)C(=O)O)cc1 [Cpd 143]
13 | 248 nM | 3840 nM | COc1cnn(C)c(=O)c1-c1ccc(C[C@H](NC(=O)C2(NC3CCCCC3)CCOCC2)C(=O)O)cc1 [Cpd 98]
14 | 21 nM | 4220 nM | CS(=O)(=O)c1ccc(-c2cnn(CC3CC3)c(=O)c2-c2ccc(C[C@H](NC(=O)c3c(Cl)cccc3Cl)C(=O)O)cc2)cc1 [Cpd 65]
15 | 364 nM | 611 nM | CC(C)(C)n1ncc(-n2cncn2)c(-c2ccc(C[C@H](NC(=O)c3c(Cl)cccc3Cl)C(=O)O)cc2)c1=O [Cpd 160]
16 | 44 nM | 212 nM | Cn1ncc(OCC2CC2)c(-c2ccc(C[C@H](NC(=O)c3c(Cl)cccc3Cl)C(=O)O)cc2)c1=O [Cpd 86, (S)-3-[4-(5-Cyclopropylmethoxy-2-methyl-3-oxo-2,3-dihydro-pyridazin-4-yl)-phenyl]-2-(2,6-dichloro-benzoylamino)-propionic acid]
17 | 4 nM | 249 nM | CC(C)Oc1cnn(CCO)c(=O)c1-c1ccc(C[C@H](NC(=O)c2c(Cl)cccc2Cl)C(=O)O)cc1 [Cpd 24]
18 | 14 nM | 486 nM | Cn1ncc(Cl)c(-c2ccc(C[C@H](NC(=O)c3c(Cl)cccc3Cl)C(=O)O)cc2)c1=O [Cpd 49]

Row | IC50 (human α4β7 integrin) | IC50 (α4β1) | SMILES
19 | 401 nM | > 5000 nM | COc1cnn(C)c(=O)c1-c1ccc(C[C@H](NC(=O)C2(NC(=O)OC(C)(C)C)CCCCC2)C(=O)O)cc1 [Cpd 222]
20 | 2 nM | 305 nM | CN1CCC(Oc2cnn(C)c(=O)c2-c2ccc(C[C@H](NC(=O)c3c(Cl)cccc3Cl)C(=O)O)cc2)C1 (stereo partly drawn) [Cpd 12]
21 | 1280 nM | > 5000 nM | COc1cnn(C)c(=O)c1-c1ccc(CC(NC(=O)C2CCCN2C(=O)OC(C)(C)C)C(=O)O)cc1 (mixture of isomers) [Cpd 195]
22 | 60 nM | 264 nM | COc1cnn(C)c(=O)c1-c1ccc(C[C@H](NC(=O)C23CCC(CC2)CN3)C(=O)O)cc1 [Cpd 99]
23 | 46 nM | 1040 nM | O=C(N[C@@H](Cc1ccc(-c2c(-n3ncc4ccccc43)cnn(CCO)c2=O)cc1)C(=O)O)c1c(Cl)cccc1Cl [Cpd 88]
24 | 44 nM | 278 nM | COc1cnn(C)c(=O)c1-c1ccc(CC(NC(=O)C(C(C)C)n2cccc2)C(=O)O)cc1 (stereo not drawn) [Cpd 87, 3-[4-(5-Methoxy-2-methyl-3-oxo-2,3-dihydro-pyridazin-4-yl)-phenyl]-2-(3-methyl-2-pyrrol-1-yl-butyrylamino)-propionic acid]
25 | 152 nM | > 5000 nM | O=C(N[C@@H](Cc1ccc(-c2c(-n3nccc3-c3cccs3)cnn(CCO)c2=O)cc1)C(=O)O)c1c(Cl)cccc1Cl [Cpd 131, (S)-2-(2,6-Dichloro-benzoylamino)-3-{4-[2-(2-hydroxy-ethyl)-3-oxo-5-(5-thiophen-2-yl-pyrazol-1-yl)-2,3-di hydro-pyridazin-4-yl]-phenyl}-propionic acid]
26 | 429 nM | > 5000 nM | COc1cnn(C)c(=O)c1-c1ccc(C[C@H](NC(=O)c2cc(=O)[nH]c(=O)[nH]2)C(=O)O)cc1 [Cpd 163]
27 | 200 nM | 962 nM | COc1cnn(C)c(=O)c1-c1ccc(C[C@H](NC(=O)c2ccc(C(=O)O)cc2)C(=O)O)cc1 [Cpd 137]
28 | 88 nM | 44 nM | COc1cnn(C)c(=O)c1-c1ccc(C[C@H](NC(=O)[C@@H]2C3CCC(CC3)N2C(=O)Cc2ccsc2)C(=O)O)cc1 [Cpd 113]
29 | 922 nM | > 5000 nM | COc1cc(N)c(Cl)cc1C(=O)N[C@@H](Cc1ccc(-c2c(OC)cnn(C)c2=O)cc1)C(=O)O [Cpd 188]
30 | 10 nM | 1280 nM | COc1cnn(C)c(=O)c1-c1ccc(CC(NC(=O)C2(C(=O)NC(Cc3ccc(-c4c(OC)cnn(C)c4=O)cc3)C(=O)O)CC2)C(=O)O)cc1 (stereo not drawn) [Cpd 133]
31 | 11 nM | 152 nM | Cn1ncc(OC2CCCCC2)c(-c2ccc(C[C@H](NC(=O)c3c(Cl)cccc3Cl)C(=O)O)cc2)c1=O [Cpd 41]
32 | 2 nM | 303 nM | Cn1ncc(OCCO)c(-c2ccc(C[C@H](NC(=O)c3c(Cl)cccc3Cl)C(=O)O)cc2)c1=O [Cpd 8]
33 | 60 nM | 272 nM | COc1cnn(C)c(=O)c1-c1ccc(C[C@H](NC(=O)[C@@H]2C3CCC(CC3)N2C(=O)CCC(C)C)C(=O)O)cc1 [Cpd 100]
34 | 6 nM | 535 nM | COc1cnn(CC(C)=O)c(=O)c1-c1ccc(C[C@H](NC(=O)c2c(Cl)cccc2Cl)C(=O)O)cc1 [Cpd 228]
35 | 457 nM | > 5000 nM | COc1cnn(C)c(=O)c1-c1ccc(C[C@H](NC(=O)C2CCN(C(=O)OCc3ccccc3)CC2)C(=O)O)cc1 [Cpd 164]
36 | 27 nM | 135 nM | CC(C)Oc1cnn(C)c(=O)c1-c1ccc(C[C@H](NC(=O)c2c(Cl)cccc2Cl)C(=O)O)cc1 [Cpd 74]
